Reference: patent US8999956B2, “N-[(het)arylalkyl)] pyrazole(thio)carboxamides and their heterosubstituted analogues” (Bayer Intellectual Property GmbH, priority 2010, dated 2015)

What was measured:
[1] = log P by HPLC on reversed-phase column (EEC Directive 79/831 Annex V.A8); format: physicochemical
Protocol: In table 1, the log P values were determined in accordance with EEC Directive 79/831 Annex V.A8 by HPLC (High Performance Liquid Chromatography) on a reversed-phase column (C18), using the method described below: Temperature: 40° C.; […]

Aspergillus parasiticus = assay: microbe, parasite or virus in culture; format: cell-based
[2] = test system: aflatoxines produced by Aspergillus parasiticus; assay: microbe, parasite or virus in culture; format: cell-based
Alternaria solani = assay: In vivo preventive test on Alternaria solani (tomato); settings: 500 ppm of active ingredient, evaluated 7 days after inoculation
Protocol: (§1) Solvent: 49 parts by weight of N,N-dimethylformamide Emulsifier: 1 part by weight of Alkylarylpolyglycolether To produce a suitable preparation of active compound, 1 part by weight of active compound is mixed with the stated amounts of solvent and emulsifier, and the concentrate is diluted with water to the desired concentration. To test for preventive activity, young plants are sprayed with the preparation of active compound at the stated rate of application. One day after this treatment, the plants are inoculated with an aqueous spore suspension of Alternaria solani.

Pyrenophora teres = assay: In vivo preventive test on Pyrenophora teres (barley); settings: 500 ppm of active ingredient, evaluated 7-9 days after inoculation
Protocol: as §1, with “alkylaryl polyglycol ether” for “Alkylarylpolyglycolether”, “Pyrenophora teres.” for “Alternaria solani.”

In the case of `Cn1nc(C(F)F)c(C(=O)N(C[Si](C)(C)Cc2cc(Cl)cc(Cl)c2)C2CC2)c1Cl` [Example 292], the logP [1] is reported as 5.14, the “% Inhibition of fungal growth at 50 μM” value (Aspergillus parasiticus) is reported as 86% and the “% Inhibition of Aflatoxin at 50 μM” value [2] is reported as 100%.
Work on `CC(CNC(=O)c1c(C(F)F)nn(C)c1Cl)Cc1c(F)cccc1F` (stereo not shown) [Example 158] yielded a logP [1] of 3.21, an Efficacy (Alternaria solani) of 80% and an Efficacy (Pyrenophora teres) of 95%.
Work on `Cn1nc(C(F)F)c(C(=O)NCC(Sc2ccc(Cl)cc2)C(F)(F)F)c1F` (stereo not shown) [Example 46] yielded a logP [1] of 3.73, an Efficacy (Alternaria solani) of 100% and an Efficacy (Pyrenophora teres) of 100%.
Work on `Cc1ccc(SCC(C2CC2)N(C)C(=O)c2c(C(F)F)nn(C)c2F)cc1` (stereo not shown) [Example 40] yielded a logP [1] of 3.64, an Efficacy (Alternaria solani) of 95% and an Efficacy (Pyrenophora teres) of 80%.
Work on `CN(CC(NC(=O)c1c(C(F)F)nn(C)c1F)C1CC1)c1ccccc1` (stereo not shown) [Example 17] yielded a logP [1] of 3.02 and an Efficacy (Alternaria solani) of 95%.
Work on `CN(CCCc1ccccc1)C(=O)c1c(C(F)F)nn(C)c1Cl` [Example 5] yielded a logP [1] of 2.82 and an Efficacy (Alternaria solani) of 80%.
`Cc1cccc(C)c1OCC(C)N(C(=O)c1c(C(F)F)nn(C)c1Cl)C1CC1` (stereo not shown) [Example 156] gave a logP [1] of 4.15, an Efficacy (Alternaria solani) of 80% and an Efficacy (Pyrenophora teres) of 95%.
`CN(CCCc1ccccc1)C(=O)c1c(C(F)F)nn(C)c1F` [Example 6] gave a logP [1] of 2.73, an Efficacy (Alternaria solani) of 95% and an Efficacy (Pyrenophora teres) of 70%.
`CC(O)C1CCCCC1NC(=O)c1c(C(F)F)nn(C)c1F` (single isomer, unassigned) [Example 341] showed a logP [1] of 1.72 isomer A and an Efficacy (Alternaria solani) of 80%.
Work on `CCC(COc1cc(Cl)ccc1Cl)NC(=O)c1c(C(F)F)nn(C)c1Cl` (stereo not shown) [Example 176] yielded a logP [1] of 4.01, an Efficacy (Alternaria solani) of 80% and an Efficacy (Pyrenophora teres) of 95%.
In the case of `CC(C)C(CCc1ccc(Cl)cc1)NC(=O)c1c(C(F)F)nn(C)c1F` (stereo not shown) [Example 63], the logP [1] is reported as 3.94, the Efficacy (Alternaria solani) is reported as 100% and the Efficacy (Pyrenophora teres) is reported as 100%.
`CC(CCc1cc(Cl)ccc1Cl)NC(=O)c1c(C(F)F)nn(C)c1Cl` (stereo not shown) [Example 171] showed a logP [1] of 3.87, an Efficacy (Alternaria solani) of 95% and an Efficacy (Pyrenophora teres) of 100%.
Work on `CC(CCc1ccccc1)NC(=O)c1c(C(F)F)nn(C)c1Cl` (stereo not shown) [Example 11] yielded a logP [1] of 3.04, an Efficacy (Alternaria solani) of 95% and an Efficacy (Pyrenophora teres) of 100%.
`CC(C)OC1CCCC(NC(=O)c2c(C(F)F)nn(C)c2F)C1` (stereo not shown) [Example 325] showed a logP [1] of 2.06 and an Efficacy (Alternaria solani) of 95%.
With `CC(COc1ccccc1)N(C)C(=O)c1c(C(F)F)nn(C)c1F` (stereo not shown) [Example 16] the logP [1] was 2.62, the Efficacy (Alternaria solani) was 90% and the Efficacy (Pyrenophora teres) was 90%.
`Cn1nc(C(F)F)c(C(=O)NC(COc2ccc(Cl)cc2Cl)C2CC2)c1Cl` (stereo not shown) [Example 194] showed a logP [1] of 4.18 and an Efficacy (Alternaria solani) of 70%.
For `CCN(C(=O)c1c(C(F)F)nn(C)c1F)C(C)COc1ccc(C)cc1` (stereo not shown) [Example 38], the logP [1] was 3.27, the Efficacy (Alternaria solani) was 80% and the Efficacy (Pyrenophora teres) was 80%.
Compound `CN(C(=O)c1c(C(F)F)nn(C)c1F)C(COc1ccccc1)C1CC1` (stereo not shown) [Example 21] has a logP [1] of 3.08, an Efficacy (Alternaria solani) of 90% and an Efficacy (Pyrenophora teres) of 80%.
For `CC(CNC(=O)c1c(C(F)F)nn(C)c1Cl)Cc1ccc(Cl)c(Cl)c1` (racemic) [Example 127], the logP [1] was 3.87, the Efficacy (Alternaria solani) was 90% and the Efficacy (Pyrenophora teres) was 100%.
`Cn1nc(C(F)F)c(C(=O)NC2(COc3ccc(Cl)cc3)CC2)c1Cl` [Example 45] showed a logP [1] of 3.19 and an Efficacy (Alternaria solani) of 95%.
Work on `CN(c1ccc(Oc2ccccc2)cc1)C(CNC(=O)c1c(C(F)F)nn(C)c1F)C(F)(F)F` (stereo not shown) [Example 33] yielded a logP [1] of 4.16, an Efficacy (Alternaria solani) of 95% and an Efficacy (Pyrenophora teres) of 95%.
For `Cn1nc(C(F)F)c(C(=O)NCC2CCCC(C(F)(F)F)C2)c1F` (stereo not shown) [Example 379], the logP [1] was 2.96, the Efficacy (Alternaria solani) was 95% and the Efficacy (Pyrenophora teres) was 100%.
`CC(C)C(CCc1ccc(Cl)cc1)NC(=O)c1c(C(F)F)nn(C)c1Cl` (stereo not shown) [Example 62] gave a logP [1] of 4.11 and an Efficacy (Pyrenophora teres) of 80%.
Work on `CC(COc1ccc(Cl)cc1Cl)N(C(=O)c1c(C(F)F)nn(C)c1Cl)C1CC1` (stereo not shown) [Example 188] yielded a logP [1] of 4.41, an Efficacy (Alternaria solani) of 100% and an Efficacy (Pyrenophora teres) of 100%.
In the case of `Cn1nc(C(F)F)c(C(=O)NC(C)(C)CCc2cccc(Cl)c2)c1Cl` [Example 83], the logP [1] is reported as 4.01, the Efficacy (Alternaria solani) is reported as 95% and the Efficacy (Pyrenophora teres) is reported as 95%.
Compound `CC(CNC(=O)c1c(C(F)F)nn(C)c1Cl)Cc1cc(Cl)ccc1Cl` (stereo not shown) [Example 164] has a logP [1] of 3.87, an Efficacy (Alternaria solani) of 95% and an Efficacy (Pyrenophora teres) of 100%.
Work on `CC(COc1ccccc1)NC(=O)c1c(C(F)F)nn(C)c1Cl` (stereo not shown) [Example 14] yielded a logP [1] of 2.84 and an Efficacy (Pyrenophora teres) of 95%.
`CN(C(=O)c1c(C(F)F)nn(C)c1Cl)C(CSCc1ccccc1)C1CC1` (stereo not shown) [Example 224] showed a logP [1] of 3.62 and an Efficacy (Alternaria solani) of 70%.
With `Cn1nc(C(F)F)c(C(=O)NCCOc2c(F)cccc2F)c1F` [Example 159] the logP [1] was 2.44 and the Efficacy (Alternaria solani) was 90%.
`Cn1nc(C(F)F)c(C(=O)NC2(C3CCCCC3)CC2)c1Cl` [Example 380] gave a logP [1] of 3.29, an Efficacy (Alternaria solani) of 95% and an Efficacy (Pyrenophora teres) of 100%.
`Cc1cccc(C)c1CC(C)CNC(=O)c1c(C(F)F)nn(C)c1Cl` (racemic) [Example 149] gave a logP [1] of 3.63, an Efficacy (Alternaria solani) of 90% and an Efficacy (Pyrenophora teres) of 95%.
Work on `Cn1nc(C(F)F)c(C(=O)NC(C)(C)CCc2cc(Cl)ccc2Cl)c1Cl` [Example 177] yielded a logP [1] of 4.49, an Efficacy (Alternaria solani) of 100% and an Efficacy (Pyrenophora teres) of 100%.
With `Cn1nc(C(F)F)c(C(=O)N(CCOc2c(Cl)cc(Cl)cc2Cl)C2COC2)c1F` [Example 210] the logP [1] was 3.42, the Efficacy (Alternaria solani) was 70% and the Efficacy (Pyrenophora teres) was 90%.
Work on `CCC(COc1cc(C)cc(C)n1)NC(=O)c1c(C(F)F)nn(C)c1Cl` (stereo not shown) [Example 67] yielded a logP [1] of 2.14, an Efficacy (Alternaria solani) of 70% and an Efficacy (Pyrenophora teres) of 100%.
For `Cn1nc(C(F)F)c(C(=O)N(CCOc2ccc(-c3ccccc3)cc2)C2CC2)c1Cl` [Example 28], the logP [1] was 4.03 and the Efficacy (Pyrenophora teres) was 90%.
For `CN(CCCc1ccccc1Cl)C(=O)c1c(C(F)F)nn(C)c1Cl` [Example 141], the logP [1] was 3.17 and the Efficacy (Pyrenophora teres) was 90%.
`Cn1nc(C(F)F)c(C(=O)NCCOc2ccc(C(F)(F)F)cc2)c1Cl` [Example 69] showed a logP [1] of 3.17 and an Efficacy (Alternaria solani) of 80%.
In the case of `Cn1nc(C(F)F)c(C(=O)NCCOc2cccc(Oc3ccccc3)c2)c1F` [Example 74], the logP [1] is reported as 3.41 and the Efficacy (Alternaria solani) is reported as 95%.
With `CN(C(=O)c1c(C(F)F)nn(C)c1F)C(COc1ccc2ccccc2c1)C1CC1` (racemic) [Example 139] the logP [1] was 3.76 and the Efficacy (Pyrenophora teres) was 90%.
`CC(CNC(=O)c1c(C(F)F)nn(C)c1Cl)Cc1cc(Cl)cc(Cl)c1` (stereo not shown) [Example 115] showed a logP [1] of 4.04, an Efficacy (Alternaria solani) of 90% and an Efficacy (Pyrenophora teres) of 100%.
In the case of `Cn1nc(C(F)F)c(C(=O)NC(C)(C)CCc2ccccc2Cl)c1Cl` [Example 147], the logP [1] is reported as 3.99 and the Efficacy (Pyrenophora teres) is reported as 100%.
`Cn1nc(C(F)F)c(C(=O)NCCOc2cc(Cl)ccc2Cl)c1Cl` [Example 170] showed a logP [1] of 3.31 and an Efficacy (Alternaria solani) of 90%.
Work on `CN(C(=O)c1c(C(F)F)nn(C)c1F)C(COc1ccccc1Cl)C1CC1` (racemic) [Example 145] yielded a logP [1] of 3.44, an Efficacy (Alternaria solani) of 70% and an Efficacy (Pyrenophora teres) of 70%.
For `Cn1nc(C(F)F)c(C(=O)NCCOc2ccc(Cl)cc2)c1F` [Example 48], the logP [1] was 2.78 and the Efficacy (Alternaria solani) was 90%.
`Cn1nc(C(F)F)c(C(=O)NC(COc2ccc3ccccc3c2)C2CC2)c1F` (racemic) [Example 137] showed a logP [1] of 3.74, an Efficacy (Alternaria solani) of 95% and an Efficacy (Pyrenophora teres) of 89%.
With `Cn1nc(C(F)F)c(C(=O)NC(CSc2ccccc2)C2CC2)c1F` (stereo not shown) [Example 22] the logP [1] was 3.25 and the Efficacy (Alternaria solani) was 95%.
Compound `CC(CCc1ccccc1)NC(=O)c1c(C(F)F)nn(C)c1F` (stereo not shown) [Example 12] has a logP [1] of 2.88, an Efficacy (Alternaria solani) of 95% and an Efficacy (Pyrenophora teres) of 100%.
For `Cc1cccc(OC2CCCC2NC(=O)c2c(C(F)F)nn(C)c2Cl)c1` (stereo not shown) [Example 260], the logP [1] was 3.78 and the Efficacy (Pyrenophora teres) was 70%.
`Cn1nc(C(F)F)c(C(=O)NCCOc2ccc(Oc3ccccc3)cc2)c1F` [Example 34] showed a logP [1] of 3.42 and an Efficacy (Alternaria solani) of 90%.
`Cn1nc(C(F)F)c(C(=O)NC(C)(C)CCc2ccc(Cl)cc2Cl)c1Cl` [Example 195] showed a logP [1] of 4.61, an Efficacy (Alternaria solani) of 95% and an Efficacy (Pyrenophora teres) of 95%.
For `Cn1nc(C(F)F)c(C(=O)NC(C)(C)CCc2cccc(Cl)c2)c1F` [Example 84], the logP [1] was 3.83, the Efficacy (Alternaria solani) was 95% and the Efficacy (Pyrenophora teres) was 95%.
For `Cn1nc(C(F)F)c(C(=O)NC2(COc3ccc(Cl)cc3)CC2)c1F` [Example 44], the logP [1] was 3.00 and the Efficacy (Alternaria solani) was 100%.
With `Cn1nc(C(F)F)c(C(=O)NCC(Sc2ccc(Cl)cc2)C(F)(F)F)c1Cl` (stereo not shown) [Example 47] the logP [1] was 3.89 and the Efficacy (Alternaria solani) was 80%.
`CN(c1ccc(Oc2ccccc2)cc1)C(CNC(=O)c1c(C(F)F)nn(C)c1Cl)C(F)(F)F` (stereo not shown) [Example 32] showed a logP [1] of 4.27, an Efficacy (Alternaria solani) of 95% and an Efficacy (Pyrenophora teres) of 70%.
`Cn1nc(C(F)F)c(C(=O)NC(COc2ccccc2)C2CC2)c1F` (stereo not shown) [Example 19] showed a logP [1] of 3.06, an Efficacy (Alternaria solani) of 95% and an Efficacy (Pyrenophora teres) of 89%.
